Results on 19 compounds are retold here after article PMC6271988, “New Potentially Active Pyrazinamide Derivatives Synthesized Under Microwave Conditions” (Molecules, 2014).

Series [1] has as its system PET in spinach chloroplasts. Kind of series: Photosynthetic electron transport (PET) inhibition, DCPIP photoreduction. Format: biochemical, Spinacia oleracea L. Particulars: for IC50: DCPIP photoreduction. As for the experimental part: The inhibition of photosynthetic electron transport (PET) in spinach chloroplasts was determined spectrophotometrically (Genesys 6, Thermo Scientific, Madison, WI, USA) using an artificial electron acceptor 2,6-dichlorophenol-indophenol (DCPIP). The rate of photosynthetic electron transport was monitored as a photoreduction of DCPIP. Chloroplasts were prepared from Spinacia oleracea L.. The measurements were carried out in phosphate buffer (0.02 mol/L, pH 7.2) containing sucrose (0.4 mol/L), MgCl2 (0.005 mol/L) and NaCl (0.015 mol/L). The chlorophyll concentration was 30 mg/L and the samples were irradiated (~100 W/m^2 with 10 cm distance) with a halogen lamp (250 W). […] The studied compound were dissolved in DMSO due to their limited water solubility. […] The efficiency of studied compounds was expressed as 50% inhibition concentration relative to the untreated control. The standard for these measurements was DCMU (Diurone®).

The nature of series [2]: Lipophilicity HPLC determination (logk). The format is physicochemical. As to conditions: HPLC capacity factor, C18, MeOH 70%/H2O 30%, 30 °C.
For the next series, the system named is Candida tropicalis 156. Kind of series: Antifungal evaluation, microdilution broth method. Format: cell-based. Particulars: CT. As for the experimental part: (§1) Antifungal evaluation was also accomplished with microdilution broth method. On the contrary, there was used RPMI 1640 broth with glutamine as medium and conditions were humid and dark atmosphere, pH 7.0 (adjusted with 0.165 M morpholinepropanesulfonic acid, MOPS) and 35 °C. 8 fungal strains were used (Candida albicans ATCC 44859, Candida tropicalis 156, Candida krusei E28, Candida glabrata 20/I, Trichosporon asahii 1188, Aspergillus fumigatus 231, Lichtheimia corymbifera 272, Trichophyton mentagrophytes 445) together with four antimycotic standards amphotericin B, voriconazole, nystatin and fluconazole.

For series [3], the system named is Aspergillus fumigatus 231. In words: Antifungal evaluation, microdilution broth method. The format is cell-based. Particulars: AF. On the procedure: as §1
In a further series the test system is Candida glabrata 20/I. Kind of series: Antifungal evaluation, microdilution broth method. Format: cell-based. As to conditions: CG. On the procedure:
as §1

For a further series, the system named is Trichosporon asahii 1188. In words: Antifungal evaluation, microdilution broth method. The format is cell-based. As to conditions: TA. As for the experimental part:
as §1

For series [4], the system named is Candida albicans ATCC 44859. In words: Antifungal evaluation, microdilution broth method. Format: cell-based. As to conditions: CA. On the procedure:
as §1

Another series concerns Candida krusei E28. In words: Antifungal evaluation, microdilution broth method. The format is cell-based. Particulars: CK. As for the experimental part:
as §1

In series [5] the test system is Trichophyton mentagrophytes 445. Kind of series: Antifungal evaluation, microdilution broth method. Format: cell-based. As to conditions: TM. As for the experimental part: as §1
For series [6], the system named is Lichtheimia corymbifera 272. In words: Antifungal evaluation, microdilution broth method. The format is cell-based. Particulars: LC. On the procedure: as §1
Series [7] has as its system spectrum of fungi tested (8 fungal strains). Kind of series: Antifungal evaluation, summary over the fungi tested. The format is cell-based. Particulars: fungi tested, less active than the standards; read-out: IC80 antifungal. As for the experimental part: as §1
Where [8] appears, read: Aspergillus fumigatus, 231, 24 h.
The mark [9] stands for this setting: Aspergillus fumigatus, 231, 48 h.
The mark [10] stands for this setting: Nakaseomyces glabratus, 20/I, 24 h.
The mark [11] stands for this setting: Nakaseomyces glabratus, 20/I, 48 h.
[12] abbreviates: Trichosporon asahii, 1188, 24 h.
The mark [13] stands for this setting: Trichosporon asahii, 1188, 48 h.
[14] abbreviates: Candida albicans, ATCC44859, 24 h.
Setting [15] is: Candida albicans, ATCC44859, 48 h.
[16] abbreviates: Trichophyton mentagrophytes, 445, 72 h.
Where [17] appears, read: Trichophyton mentagrophytes, 445, 120 h.
[18] abbreviates: Lichtheimia corymbifera, 272, 24 h.
Where [19] appears, read: Lichtheimia corymbifera, 272, 48 h.

For “3-(Piperidin-1-ylamino)pyrazine-2-carboxamide [Compound 15]”, in series [1], the “PET inhibition (result in words)” value is given as “did not inhibit PET”. The same compound registered a logk in series [2] of −0.2333.
For “3-(Pyrrolidin-1-ylamino)pyrazine-2-carboxamide [Compound 14]”, in that order: “did not inhibit PET” and −0.4889.
As to `C[C@@H]1[C@H](O)[C@@H](C)/C=C/C=C/C=C/C=C/C=C/C=C/C=C/[C@H](O[C@@H]2O[C@H](C)[C@@H](O)[C@H](N)[C@@H]2O)C[C@@H]2O[C@](O)(C[C@@H](O)C[C@@H](O)[C@H](O)CC[C@@H](O)C[C@@H](O)CC(=O)O[C@H]1C)C[C@H](O)[C@H]2C(=O)O` [AMP, amphotericin B], the IC80 in the series on Candida tropicalis 156 (Candida tropicalis, 156, 24 h) was determined as 1.95 µM; with Candida tropicalis 156 (Candida tropicalis, 156, 48 h), 1.95 µM; in [3] (setting [8]) it was 1.95 µM; in series [3] (setting [9]), 1.95 µM; in the series on Candida glabrata 20/I (setting [10]) it was 0.98 µM; in the series with Candida glabrata 20/I (setting [11]), 1.95 µM. The IC80 is 0.49 µM with Trichosporon asahii 1188 (setting [12]); 0.98 µM in the series with Trichosporon asahii 1188 (setting [13]); 0.12 µM in series [4] (setting [14]); 0.49 µM in series [4] (setting [15]); 1.95 µM with Candida krusei E28 (Pichia kudriavzevii, E28, 24 h); 1.95 µM with Candida krusei E28 (Pichia kudriavzevii, E28, 48 h). Moreover, the IC80 in series [5] (setting [16]) amounted to 1.95 µM; in series [5] (setting [17]), 1.95 µM; in series [6] (setting [18]), 7.81 µM; in [6] (setting [19]), 7.81 µM.
Turning to `CNc1nccnc1C(N)=O` [Compound 1, 3-(Methylamino)pyrazine-2-carboxamide], in series [1], the “PET inhibition (result in words)” value is “did not inhibit PET”. The compound also had a logk in series [2] of −0.4028.
The matching figures for `CCNc1nccnc1C(N)=O` [Compound 2, 3-(Ethylamino)pyrazine-2-carboxamide]: “did not inhibit PET” and −0.2014.
As to `CCCNc1nccnc1C(N)=O` [Compound 3, 3-(Propylamino)pyrazine-2-carboxamide], in [1], 1590 µM corresponded to half-maximal inhibition (IC50). The logk in series [2] is recorded as 0.0038.
Consider `CCCCNc1nccnc1C(N)=O` [Compound 4, 3-(Butylamino)pyrazine-2-carboxamide], for which, in series [7], the IC80 was not below 250 µM. This compound also displayed a concentration for half-maximal inhibition (IC50) in [1] of 203 µM. In series [2], this compound had a logk of 0.2287.
`CCC(C)(C)Nc1nccnc1C(N)=O` [Compound 6, 3-(tert-Pentylamino)pyrazine-2-carboxamide] yielded an IC50 in series [1] of 480 µM. Besides, the logk in [2] is recorded as 0.5468.
Regarding `CCCCCCCNc1nccnc1C(N)=O` [Compound 8, 3-(Heptylamino)pyrazine-2-carboxamide], the IC80 in [7] is not below 250 µM. The compound also yielded a logk in series [2] of 0.9198.
In series [1], `CCCCCCCCNc1nccnc1C(N)=O` [Compound 9, 3-(Octylamino)pyrazine-2-carboxamide] displayed a half-inhibitory concentration (IC50) of 14.3 µM. This compound also yielded a logk in series [2] of 1.1533.
`CCCCN(CCCC)c1nccnc1C(N)=O` [Compound 10, 3-(Dibutylamino)pyrazine-2-carboxamide]: the “PET inhibition (result in words)” value in [1] is “did not inhibit PET”. Moreover, the logk in series [2] worked out at 0.5197.
For `NC(=O)c1nccnc1NC1CCCC1` [Compound 11, 3-(Cyclopentylamino)pyrazine-2-carboxamide], the IC80 was not below 250 µM in series [7]; more than 500 µM with Candida tropicalis 156 (Candida tropicalis, 156, 24 h); more than 500 µM in the series with Candida tropicalis 156 (Candida tropicalis, 156, 48 h); 500 µM in series [3] (setting [8]); more than 500 µM in [3] (setting [9]); 250 µM with Candida glabrata 20/I (setting [10]). For the same compound, the IC80 is more than 500 µM in the series on Candida glabrata 20/I (setting [11]); 500 µM in the series on Trichosporon asahii 1188 (setting [12]); more than 500 µM in the series on Trichosporon asahii 1188 (setting [13]); 500 µM in [4] (setting [14]); more than 500 µM in series [4] (setting [15]); 250 µM with Candida krusei E28 (Pichia kudriavzevii, E28, 24 h). The IC80 is 500 µM in the series with Candida krusei E28 (Pichia kudriavzevii, E28, 48 h); 500 µM in [5] (setting [16]); 500 µM in [5] (setting [17]); more than 500 µM in series [6] (setting [18]); more than 500 µM in series [6] (setting [19]). In series [1], this compound had an IC50 of 25.8 µM. In series [2], this compound came in with a logk of 0.2537.
As for `NC(=O)c1nccnc1N1CCOCC1` [Compound 16, 3-(Morpholin-4-yl)pyrazine-2-carboxamide], the “PET inhibition (result in words)” value in series [1] is on record as “did not inhibit PET”. Moreover, the logk in series [2] is recorded as −0.6238.
The matching figures for `CN1CCN(c2nccnc2C(N)=O)CC1` [Compound 17, 3-(4-Methylpiperazin-1-yl)pyrazine-2-carboxamide]: “did not inhibit PET” and −0.4253.
The matching figures for `NC(=O)c1nccnc1N1CCNCC1` [Compound 18, 3-(Piperazin-1-yl)pyrazine-2-carboxamide]: “did not inhibit PET” and −2.3522.
`CN(C)C(=O)Nc1ccc(Cl)c(Cl)c1` [DCMU, 3-(3,4-dichlorophenyl)-1,1-dimethylurea, reference compound]: in series [1], the 50% inhibitory concentration (IC50) worked out at 1.9 µM.
Take `OC(Cn1cncn1)(Cn1cncn1)c1ccc(F)cc1F` [FLU, fluconazole]: the IC80 in the series with Candida tropicalis 156 (Candida tropicalis, 156, 24 h) is more than 500 µM; in the series with Candida tropicalis 156 (Candida tropicalis, 156, 48 h), more than 500 µM; in series [3] (setting [8]) it was more than 500 µM; in [3] (setting [9]), more than 500 µM; with Candida glabrata 20/I (setting [10]), 31.2 µM; in the series on Candida glabrata 20/I (setting [11]), 250 µM. Moreover, the IC80 in the series on Trichosporon asahii 1188 (setting [12]) came out at 250 µM; in the series with Trichosporon asahii 1188 (setting [13]) it was 500 µM; in [4] (setting [14]), 0.24 µM; in series [4] (setting [15]), 0.24 µM; in the series with Candida krusei E28 (Pichia kudriavzevii, E28, 24 h), 125 µM; with Candida krusei E28 (Pichia kudriavzevii, E28, 48 h), 250 µM. Further, the IC80 in series [5] (setting [16]) was 7.81 µM; in series [5] (setting [17]) it was 125 µM; in series [6] (setting [18]) it was more than 500 µM; in series [6] (setting [19]) it was more than 500 µM.
Turning to `C[C@@H]1[C@H](O)[C@@H](C)/C=C/C=C/CC/C=C/C=C/C=C/C=C/C(O[C@H]2O[C@H](C)[C@@H](O)[C@H](N)[C@@H]2O)CC2O[C@](O)(CC(O)C(O)CCC(O)CC(O)CC(O)CC(=O)O[C@H]1C)CC(O)C2C(=O)O` (stereo partly drawn) [NYS, nystatin], the 80% effect concentration (IC80) in the series on Candida tropicalis 156 (24 h) turned out to be 1.95 µM; in the series on Candida tropicalis 156 (48 h), 3.9 µM; in series [3] (24 h), 1.95 µM; in series [3] (48 h), 3.9 µM; in the series on Candida glabrata 20/I (24 h), 1.95 µM; in the series with Candida glabrata 20/I (48 h), 3.9 µM. Also, the IC80 in the series with Trichosporon asahii 1188 (24 h) came out at 1.95 µM; in the series with Trichosporon asahii 1188 (48 h), 1.95 µM; in series [4] (24 h) it was 0.98 µM; in series [4] (48 h), 1.95 µM; with Candida krusei E28 (24 h), 1.95 µM; in the series on Candida krusei E28 (48 h), 3.9 µM. The IC80 in [5] (72 h) was found to be 3.9 µM; in [5] (120 h) it was 7.81 µM; in series [6] (24 h), 15.6 µM; in series [6] (48 h), 31.2 µM.
As to `C[C@@H](c1ncncc1F)[C@](O)(Cn1cncn1)c1ccc(F)cc1F` [VOR, voriconazole], the IC80 in the series on Candida tropicalis 156 (Candida tropicalis, 156, 24 h) is 250 µM; in the series with Candida tropicalis 156 (Candida tropicalis, 156, 48 h), 250 µM; in series [3] (setting [8]), 0.49 µM; in series [3] (setting [9]), 0.98 µM; in the series with Candida glabrata 20/I (setting [10]), 250 µM; in the series on Candida glabrata 20/I (setting [11]), 250 µM. For the same compound, the IC80 with Trichosporon asahii 1188 (setting [12]) is 7.81 µM; in the series with Trichosporon asahii 1188 (setting [13]), 31.2 µM; in series [4] (setting [14]), 0.008 µM; in [4] (setting [15]) it was 0.008 µM; with Candida krusei E28 (Pichia kudriavzevii, E28, 24 h), 0.98 µM; in the series with Candida krusei E28 (Pichia kudriavzevii, E28, 48 h), 1.95 µM. Also, the IC80 was 0.06 µM in [5] (setting [16]), 0.12 µM in series [5] (setting [17]), 250 µM in [6] (setting [18]) and 250 µM in [6] (setting [19]).
